Patent US20240148821A1, “PHARMACEUTICAL USE OF CYCLIC PEPTIDE COMPOUND” (CHUGAI SEIYAKU KABUSHIKI KAISHA, priority 2021, published 2024)
Bridge positions count the residues as written; N and C are the ends. Square brackets hold non-standard residues; d marks the D form. Peptide text beside a SMILES is read from it. * marks the point of attachment. hPhe(3-Cl-4-CF3) = N[C@@H](CCc1ccc(C(F)(F)F)c(Cl)c1)C(=O)O; NMeCha = CN[C@@H](CC1CCCCC1)C(=O)O; NMeChg = CN[C@H](C(=O)O)C1CCCCC1; NMeD = CN[C@@H](CC(=O)O)C(=O)O; NMeL = CN[C@@H](CC(C)C)C(=O)O; Piperidide = C1CCN(*)CC1; Ac5c = NC1(C(=O)O)CCCC1; Sar = CNCC(=O)O

Assays:
A549 (NSCLC) = test: In vivo antitumor activity, mouse xenograft model, A549; conditions: 10 days
Description: Tumor growth inhibition rate (TGI %)=(1−TV/CV)×100

[1] = target: protein-protein interaction between Kras and SOS1 (biotin-tagged human Kras loaded with GDP, His-tagged human SOS1) (Homo sapiens (Human), UniProt P01116, G12D); test: Protein-protein interaction inhibition between Kras and SOS1 (KrasG12D-SOS PPI) using AlphaScreen; assay type: biochemical; conditions: AlphaScreen; biotin-tagged human Kras loaded with GDP, His-tagged human SOS1; read-out: KRAS G12D-SOS PPI IC50;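 note: kras produced in E. coli, Ni-coupled donor beads and streptavidin acceptor beads, excitation 680 nm with emission detected at 520–620 nm via singlet oxygen transfer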
[2] = system: various cancer cell lines (Ras mutation or amplification); test: Measurement of cell growth inhibitory activity against various cancer cell lines (CellTiter-Glo); assay type: cell-based, human
Description: Various cancer cell lines used were purchased from commercial suppliers. […] The cell suspension and culture medium supplemented with serum were dispensed to a plate containing the test compounds at 40 μL (384 well plate) or 200 μL (96 well plate) per well and incubated in a carbon dioxide gas incubator. […] Six days or seven days after the start of cultivation, 20 μL of CellTiter-Glo (Promega) was added to each well and fluorescence was measured.

CC[C@H](C)[C@@H]1NC(=O)[C@H](CC(C)C)N(C)C(=O)C[C@@H](C(=O)N2CCCCC2)N(C)C(=O)[C@H](C2CCCCC2)N(C)C(=O)C2(CCCC2)NC(=O)[C@@H]2CCCN2C(=O)[C@H](CCc2ccc(C(F)(F)F)c(Cl)c2)NC(=O)CN(C)C(=O)[C@H](CC2CCCCC2)N(C)C(=O)CN(C)C(=O)CN(C)C1=O [Compound 558, (3S,9S,18S,21S,25S,28S,34S)-3-[2-[3-chloro-4-(trifluoromethyl)phenyl]ethyl]-28-cyclohexyl-9-(cyclohexylmethyl)-21-isobutyl-7,10,13,16,22,26,29-heptamethyl-18-[(1S)-1-methylpropyl]-25-(piperidine-1-carbonyl)spiro[1,4,7,10,13,16,19,22,26,29,32-undecazabicyclo[32.3.0]heptatriacontane-31,1′-cyclopentane]-2,5,8,11,14,17,20,23,27,30,33-undecone] ([NMeL]I[Sar][Sar][NMeCha][Sar][hPhe(3-Cl-4-CF3)]P[Ac5c][NMeChg][NMeD]-Piperidide; lactam N-11)
TGI (%) (A549 (NSCLC); 10 mg/kg once daily): 46%
TGI (%) (A549 (NSCLC); 15 mg/kg once daily): 57%
TGI (%) (A549 (NSCLC); 30 mg/kg once daily): 106%
IC50 [1]: 1.8 nM
IC50 ([2]; A4/Fuk, Non-Hodgkin lymphoma, KRAS Amp): 5.83 nM
IC50 ([2]; A549, NSCLC, KRAS G12S): 7.98 nM
IC50 ([2]; KURAMOCHI, Ovary, KRAS Amp): 23.4 nM
IC50 ([2]; LS 180, Colon, KRAS G12D): 22.6 nM
IC50 ([2]; MIA PaCa-2, Pancreas, KRAS G12C): 18.7 nM
IC50 ([2]; NCI-H441, NSCLC, KRAS G12V): 31.6 nM
IC50 ([2]; NCI-H929, Myeloma, NRAS G13D): 55.7 nM
IC50 ([2]; SNU-1, Stomach, KRAS G12D): 29.8 nM
IC50 ([2]; SW480, Colon, KRAS G12V): 17.5 nM
